Literature values as cited in patent US20050266073A1, “Fast disintegrating granules containing bromhexin/bromhexinhydrochloride, process for their preparation, and their use in veterinary medicine” (Boehringer Ingelheim Vetmedica GmbH, priority 2004, published 2005).

Experiments:
[1] = not given; remark: listed apart in the source

solubility in ethanol, methanol and methylene chloride (in words)	solubility in water [1]	solubility in water (in words) [1]	Compound
dissolves with difficulty	–	–	CN(Cc1cc(Br)cc(Br)c1N)C1CCCCC1.Cl [Bromhexinhydrochloride]
–	1 g/250 ml	soluble with difficulty	CN(Cc1cc(Br)cc(Br)c1N)C1CCCCC1 [Bromhexin, N-cyclohexyl-N-methyl-(2-amino-3,5-dibrombenzyl)amine]
